Where two headings read alike, the source gives them in different places.
Legend:
EGFR (L858R T790M C797S) = target: T1, EGFR (L858R T790M C797S) (Homo sapiens, UniProt P00533, C797S/L858R/T790M); assay: Biochemical EGFR inhibition assay (Caliper mobility shift), EGFR LRTMCS mutant; settings: inhibitory activity against EGFR LRTMCS mutant; apparent IC50; read-out: Ext Enz LRTMCS
T1 construct: purchased SignalChem E10-122VG
Summary of the method: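 Kinase reactions at 25 °C run to 10–20% peptide phosphorylation, stopped with 35 mM EDTA. Phosphorylated product and substrate separated electrophoretically by mobility shift. Apparent IC50 from percent activity versus log compound concentration.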

[1] = system: phosphorylation of EGFR (Tyr1068) in NCI-H1975 cell line that harbors the EGFR L858R T790M mutations; assay: NCI-H1975 pEGFR AlphaLISA assay; format: cell-based; settings: 4-5 hours incubation, read-out: Ext pEGFR H1975
Summary of the method: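 Phospho-EGFR Tyr1068 AlphaLISA readout: lysates taken from compound-treated H1975 cells (L858R T790M EGFR) after a 4-5 h exposure at 37 °C. Cells had adhered overnight beforehand. IC50 derived by plotting % pEGFR inhibition against log compound concentration.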

[2] = Homo sapiens, NCI-H1975, inhibition of phosphorylation of mutant EGFR in NCI-H1975 cells
[3] = inhibition of phosphorylation of mutant EGFR in NCI-H1975 cells

T1 sequence (P00533 25-1210 T790M/C797S/L858R): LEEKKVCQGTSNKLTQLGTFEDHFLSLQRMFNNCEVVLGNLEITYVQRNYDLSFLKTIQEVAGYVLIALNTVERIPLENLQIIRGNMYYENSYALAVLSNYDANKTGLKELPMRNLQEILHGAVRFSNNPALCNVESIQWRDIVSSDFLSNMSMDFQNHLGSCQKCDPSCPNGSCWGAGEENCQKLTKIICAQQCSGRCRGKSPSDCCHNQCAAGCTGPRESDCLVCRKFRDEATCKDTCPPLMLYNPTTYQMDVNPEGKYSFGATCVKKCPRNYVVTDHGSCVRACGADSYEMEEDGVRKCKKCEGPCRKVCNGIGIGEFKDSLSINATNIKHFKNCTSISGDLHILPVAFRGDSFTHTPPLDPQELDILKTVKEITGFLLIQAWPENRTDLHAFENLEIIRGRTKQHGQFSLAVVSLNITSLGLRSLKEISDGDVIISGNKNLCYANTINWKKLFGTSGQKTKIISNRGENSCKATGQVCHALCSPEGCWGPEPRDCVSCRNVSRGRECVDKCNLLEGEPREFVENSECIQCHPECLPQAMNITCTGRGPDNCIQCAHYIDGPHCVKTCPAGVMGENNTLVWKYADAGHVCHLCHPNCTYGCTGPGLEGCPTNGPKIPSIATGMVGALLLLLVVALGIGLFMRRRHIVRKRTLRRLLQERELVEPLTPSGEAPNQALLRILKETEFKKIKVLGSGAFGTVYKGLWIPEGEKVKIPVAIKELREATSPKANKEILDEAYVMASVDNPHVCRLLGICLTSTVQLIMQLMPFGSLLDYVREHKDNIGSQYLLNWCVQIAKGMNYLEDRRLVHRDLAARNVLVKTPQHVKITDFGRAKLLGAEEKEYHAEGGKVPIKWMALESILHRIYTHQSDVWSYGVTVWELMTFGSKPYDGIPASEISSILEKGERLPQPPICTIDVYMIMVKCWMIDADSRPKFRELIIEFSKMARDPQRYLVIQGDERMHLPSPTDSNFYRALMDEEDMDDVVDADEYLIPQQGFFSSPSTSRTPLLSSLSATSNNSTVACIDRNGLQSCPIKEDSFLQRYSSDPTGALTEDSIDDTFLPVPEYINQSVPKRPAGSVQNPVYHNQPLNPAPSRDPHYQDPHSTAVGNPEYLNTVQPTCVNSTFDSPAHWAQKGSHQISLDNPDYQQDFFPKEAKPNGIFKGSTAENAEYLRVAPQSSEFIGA

Structure (SMILES)	IC50 (EGFR (L858R T790M C797S)) [nM]	IC50 [1, 2] [nM]	IC50 [1, 3] [nM]
C[C@@H]1[C@@H](CS(C)(=O)=O)CN1c1ccc(C2CC2)c2cc(Nc3ccnc(N4CC[C@@H](O)[C@@](C)(F)C4)n3)ncc12 (single isomer, unassigned) [Compound 90]	≤ 15	≤ 10	–
CCS(=O)(=O)CC1CN(c2ccc(C(C)C)c3cc(Nc4ccnc(N5CC[C@@H](OC)[C@@H](O)C5)n4)ncc23)C1 (single isomer, unassigned) [Compound 91, (3S,4R)-1-{4-[(8-{3-[(ethanesulfonyl)methyl]azetidin-1-yl}-5-(propan-2-yl)isoquinolin-3-yl)amino]pyrimidin-2-yl}-4-methoxypiperidin-3-ol or (3R,4S)-1-{4-[(8-{3-[(ethanesulfonyl)methyl]azetidin-1-yl}-5-(propan-2-yl)isoquinolin-3-yl)amino]pyrimidin-2-yl}-4-methoxypiperidin-3-ol]	≤ 15	≤ 10	–
CO[C@]1(C)CN(c2nccc(Nc3cc4c(C(C)C)ccc(N5CC(CS(C)(=O)=O)C5)c4cn3)n2)CC[C@@H]1O (single isomer, unassigned) [Compound 94, (3R,4S)-1-[4-({8-[3-(methanesulfonylmethyl)azetidin-1-yl]-5-(propan-2-yl)isoquinolin-3-yl}amino)pyrimidin-2-yl]-3-methoxy-3-methylpiperidin-4-ol or (3S,4R)-1-[4-({8-[3-(methanesulfonylmethyl)azetidin-1-yl]-5-(propan-2-yl)isoquinolin-3-yl}amino)pyrimidin-2-yl]-3-methoxy-3-methylpiperidin-4-ol]	≤ 15	20.1 to 30	–
CO[C@H]1CN(c2nccc(Nc3cc4c(C(C)C)ccc(N5C[C@H](CS(C)(=O)=O)[C@H]5C)c4cn3)n2)CC[C@H]1O (single isomer, unassigned) [Compound 97, (3S,4R)-1-[4-({8-[(2R,3S)-3-(methanesulfonylmethyl)-2-methylazetidin-1-yl]-5-(propan-2-yl)isoquinolin-3-yl}amino)pyrimidin-2-yl]-3-methoxypiperidin-4-ol or (3R,4S)-1-[4-({8-[(2R,3S)-3-(methanesulfonylmethyl)-2-methylazetidin-1-yl]-5-(propan-2-yl)isoquinolin-3-yl}amino)pyrimidin-2-yl]-3-methoxypiperidin-4-ol]	≤ 15	≤ 10	–
CO[C@H]1CN(c2nccc(Nc3cc4c(C(C)C)ccc(N5C[C@H](CS(C)(=O)=O)[C@H]5C)c4cn3)n2)CC[C@@H]1O (single isomer, unassigned) [Compound 98, (3R,4R)-1-[4-({8-[(2R,3S)-3-(methanesulfonylmethyl)-2-methylazetidin-1-yl]-5-(propan-2-yl)isoquinolin-3-yl}amino)pyrimidin-2-yl]-3-methoxypiperidin-4-ol or (3S,4S)-1-[4-({8-[(2R,3S)-3-(methanesulfonylmethyl)-2-methylazetidin-1-yl]-5-(propan-2-yl)isoquinolin-3-yl}amino)pyrimidin-2-yl]-3-methoxypiperidin-4-ol]	≤ 15	10.1 to 20	–

Continued, values first:

IC50 (EGFR (L858R T790M C797S)) [nM]	IC50 [1, 2] [nM]	IC50 [1, 3] [nM]	Structure (SMILES)
≤ 15	≤ 10	–	CO[C@H]1CCN(c2nccc(Nc3cc4c(C(C)C)ccc(N5C[C@H](CS(C)(=O)=O)[C@H]5C)c4cn3)n2)C[C@@H]1O (single isomer, unassigned) [Compound 92, (3S,4S)-1-(4-(5-isopropyl-8-(2R,3S)-2-methyl-3-(methylsulfonylmethyl)azetidin-1-yl)isoquinolin-3-ylamino)pyrimidin-2-yl)-4-methoxypiperidin-3-ol or (3R,4R)-1-(4-(5-isopropyl-8-((2R,3S)-2-methyl-3-(methylsulfonylmethyl)azetidin-1-yl)isoquinolin-3-ylamino)pyrimidin-2-yl)-4-methoxypiperidin-3-ol]
≤ 15	≤ 10	–	CO[C@@H]1CCN(c2nccc(Nc3cc4c(C(C)C)ccc(N5C[C@H](CS(C)(=O)=O)[C@H]5C)c4cn3)n2)C[C@@H]1O (single isomer, unassigned) [Compound 93, (3S,4R)-1-(4-(5-isopropyl-8-((2R,3S)-2-methyl-3-(methylsulfonylmethyl)azetidin-1-yl)isoquinolin-3-ylamino)pyrimidin-2-yl)-4-methoxypiperidin-3-ol or (3R,4S)-1-(4-(5-isopropyl-8-((2R,3S)-2-methyl-3-(methylsulfonylmethyl)azetidin-1-yl)isoquinolin-3-ylamino)pyrimidin-2-yl)-4-methoxypiperidin-3-ol]
20.1 to 30	–	10.1 to 20	CO[C@]1(C)CN(c2nccc(Nc3cc4c(C(C)C)ccc(N5CC(CS(C)(=O)=O)C5)c4cn3)n2)CC[C@@H]1O (single isomer, unassigned) [Compound 95, (3S,4R)-1-[4-({8-[3-(methanesulfonylmethyl)azetidin-1-yl]-5-(propan-2-yl)isoquinolin-3-yl}amino)pyrimidin-2-yl]-3-methoxy-3-methylpiperidin-4-ol or (3R,4S)-1-[4-({8-[3-(methanesulfonylmethyl)azetidin-1-yl]-5-(propan-2-yl)isoquinolin-3-yl}amino)pyrimidin-2-yl]-3-methoxy-3-methylpiperidin-4-ol]
20.1 to 30	–	10.1 to 20	CO[C@H]1CN(c2nccc(Nc3cc4c(C(C)C)ccc(N5C[C@H](CS(C)(=O)=O)[C@H]5C)c4cn3)n2)CC[C@@H]1O (single isomer, unassigned) [Compound 96, (3S,4S)-1-[4-({8-[(2R,3S)-3-(methanesulfonylmethyl)-2-methylazetidin-1-yl]-5-(propan-2-yl)isoquinolin-3-yl}amino)pyrimidin-2-yl]-3-methoxypiperidin-4-ol or (3R,4R)-1-[4-({8-[(2R,3S)-3-(methanesulfonylmethyl)-2-methylazetidin-1-yl]-5-(propan-2-yl)isoquinolin-3-yl}amino)pyrimidin-2-yl]-3-methoxypiperidin-4-ol]
≤ 15	10.1 to 20	–	CO[C@@H]1CN(c2nccc(Nc3cc4c(C(C)C)ccc(N5C[C@H](CS(C)(=O)=O)[C@H]5C)c4cn3)n2)CC[C@@H]1O (single isomer, unassigned) [Compound 99, (3R,4S)-1-[4-({8-[(2R,3S)-3-(methanesulfonylmethyl)-2-methylazetidin-1-yl]-5-(propan-2-yl)isoquinolin-3-yl}amino)pyrimidin-2-yl]-3-methoxypiperidin-4-ol or (3S,4R)-1-[4-({8-[(2R,3S)-3-(methanesulfonylmethyl)-2-methylazetidin-1-yl]-5-(propan-2-yl)isoquinolin-3-yl}amino)pyrimidin-2-yl]-3-methoxypiperidin-4-ol]
≤ 15	≤ 10	–	CC(C)c1ccc(N2C[C@H](CS(C)(=O)=O)[C@H]2C)c2cnc(Nc3ccnc(N4CC[C@](C)(O)[C@H](O)C4)n3)cc12 (single isomer, unassigned) [Compound 100, (3R,4S)-1-[4-({8-[(2R,3S)-3-(methanesulfonylmethyl)-2-methylazetidin-1-yl]-5-(propan-2-yl)isoquinolin-3-yl}amino)pyrimidin-2-yl]-4-methylpiperidine-3,4-diol or (3S,4R)-1-[4-({8-[(2R,3S)-3-(methanesulfonylmethyl)-2-methylazetidin-1-yl]-5-(propan-2-yl)isoquinolin-3-yl}amino)pyrimidin-2-yl]-4-methylpiperidine-3,4-diol]
